Laboratory results reported in patent US20240165264A1, “T CELL ACTIVATION” (The University of Birmingham, priority 2022, published 2024).

What was measured:
[1] = test system: CD4+ T cells from the Nr4a3-FT mouse; assay: Flow cytometry analysis of T cell activation markers after magnetic force application to MNP-bound cells; type: cell-based; details: blockade of actin cytoskeletal dynamics
Protocol: (§1) Splenic tissue was sourced from Nr4a3—fluorescent timer (Nr4a3-FT) reporter mice or from Tg4 transgenic mice, kindly provided by the laboratories of Dr David Bending (University of Birmingham) or Professor David Wraith (University of Birmingham) respectively. CD4+ T cells were purified by negative selection as per the manufacturer's instructions (Invitrogen, magnisort mouse CD4+ enrichment kit, 8804-6821-74) and CD4+ T cell purity was ≥95% in all experiments. Isolated CD4+ T cells were treated with functionalized MNPs for 30 minutes on ice, to final concentrations of 5×10^5 cells and 50 μg/ml MNPs respectively. Cells were then washed three times in PBS by 5 minutes of centrifugation at 300 g, before resuspension at 1×10^6/ml and use in force application experiments.
(§2) Cells treated with MNPs were subjected to external magnetic force through use of the Magnetic Ion Channel Activation (MICA) platform for force application as previously described (Henstock et al., 2018; Hughes et al., 2008). […] In all experiments shown, oscillations were set at 1 Hz and the plate was positioned 3 mm away from the particles in the on position. Force was applied for time frames shown, before assessment of biological T cell activity as described herein.
Following force application for time frames indicated, cells were maintained in a 37° C. […]

Nr4a3-FT CD4+ T cells = assay: Force induced TCR downregulation (TCRlo) by flow cytometry; type: cell-based, mouse; details: Latrunculin A 0.25 and 1 μM; cells with 250 nm particles and force
Protocol: as §1, §2
Where indicated, cells were treated with Latrunculin A (Tocris, C973) to final concentrations of 0.25 and 1 μM. […]

Q: For `C/C1=C/C(=O)O[C@@H]2C[C@@H](CC[C@H](C)/C=C\C=C\CC1)O[C@@](O)([C@@H]1CSC(=O)N1)C2` [Latrunculin A], which “effect on force induced T cell activation” value [1] is on record?
A: prevents TCR downregulation and T cell activation

Q: What about the “effect on force induced TCR downregulation” value (Nr4a3-FT CD4+ T cells) of the same compound?
A: prevents force induced TCR downregulation

Q: And the “effect on population of cells that are TCRlo and Nr4a3 positive” value (Nr4a3-FT CD4+ T cells)?
A: prevents the establishment of a population of cells that are TCRlo and Nr4a3 positive
